We go through 21 molecules from patent US20110053907A1, “SUBSTITUTED PYRIMIDINES AND TRIAZINES AND THEIR USE IN CANCER THERAPY” (Auckland UniServices Limited, priority 2008, published 2011).

Structures can show the parent of a compound that is named as a salt. Some results are limits rather than exact numbers.

The target in the first series is p110α/p85 (Homo sapiens, UniProt P42336). The experiment in a line: Reversible inhibition of isolated enzyme, lipid kinase assay. Format: biochemical. The note with it: recombinant enzyme, 100 μM ATP, 1 hr, average of two experiments. Here is the method: Compounds were evaluated for their ability to inhibit Class I PI 3-kinase enzymes p110δ/p85, p110α/p85, and p110β/p85. Reaction mixtures comprising 0.1 μg of a recombinant enzyme, 10 μg of L-α-phosphatidylinositol, and 2× Lipid Kinase Buffer (40 mM Tris-HCl, pH 7.4, 200 mM NaCl, 1 mM EDTA), which contains either DMSO only as a control or the test compound in DMSO (the final DMSO concentration is 1%), were activated by the addition of an ATP mix (5 mM MgCl2, 100 μM ATP, and 0.1 μL [γ^33P]ATP). Reactions were incubated at room temperature for 1 hr, and then stopped by the addition of 1M HCl. The lipids were then extracted using a two step procedure. Firstly, 200 μL of chloroform/methanol (1:1) was added, the biphasic reactions mixed and centrifuged briefly, and the inorganic phase was removed and discarded. Following this, 80 μL of methanol:HCl (1:1) was added and the same procedure followed. The organic phase (70 μL) was then transferred to a clean 1.6 mL tube and the reactions were dried using a Speedvac, with no heating, for 30 min. The reactions were spotted onto TLC plates (Merck Ltd) and developed for 1 hr in propanol-1:2 M acetic acid (13:7). The TLC plates were then dried at room temperature and quantified using a phosphorimager (StormImager, Amersham). Nine compound concentrations were used for each test compound to determine its IC50 value. Each experiment was performed twice and the average IC50 value is used herein.
Chain of p110α/p85 (P42336 whole entry): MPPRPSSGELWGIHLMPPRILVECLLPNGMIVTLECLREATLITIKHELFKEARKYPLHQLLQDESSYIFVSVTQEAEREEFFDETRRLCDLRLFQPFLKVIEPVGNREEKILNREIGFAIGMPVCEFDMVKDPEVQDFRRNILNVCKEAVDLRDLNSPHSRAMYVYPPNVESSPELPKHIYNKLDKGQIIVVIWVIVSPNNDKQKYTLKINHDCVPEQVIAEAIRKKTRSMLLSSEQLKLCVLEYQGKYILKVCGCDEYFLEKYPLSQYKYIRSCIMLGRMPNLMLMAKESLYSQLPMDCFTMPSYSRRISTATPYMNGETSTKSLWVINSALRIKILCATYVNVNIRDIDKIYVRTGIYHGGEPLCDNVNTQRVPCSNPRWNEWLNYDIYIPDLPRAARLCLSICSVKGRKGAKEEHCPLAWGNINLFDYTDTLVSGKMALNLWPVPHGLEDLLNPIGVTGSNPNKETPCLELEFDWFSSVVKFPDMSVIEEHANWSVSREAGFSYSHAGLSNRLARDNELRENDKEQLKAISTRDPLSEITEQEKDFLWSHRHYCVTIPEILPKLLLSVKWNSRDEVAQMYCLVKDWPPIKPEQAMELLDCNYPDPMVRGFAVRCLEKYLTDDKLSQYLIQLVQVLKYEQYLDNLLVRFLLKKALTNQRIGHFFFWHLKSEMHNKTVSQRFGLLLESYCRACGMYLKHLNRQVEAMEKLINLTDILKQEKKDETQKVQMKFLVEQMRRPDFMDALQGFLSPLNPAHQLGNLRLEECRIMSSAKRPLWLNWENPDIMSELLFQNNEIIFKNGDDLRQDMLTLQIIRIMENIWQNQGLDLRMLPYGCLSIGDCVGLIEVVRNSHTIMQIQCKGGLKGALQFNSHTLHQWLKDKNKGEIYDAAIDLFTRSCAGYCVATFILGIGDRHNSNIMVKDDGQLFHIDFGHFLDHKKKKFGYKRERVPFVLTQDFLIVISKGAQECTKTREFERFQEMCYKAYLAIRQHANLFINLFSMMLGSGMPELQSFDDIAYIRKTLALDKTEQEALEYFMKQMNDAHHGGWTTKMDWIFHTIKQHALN
Chain of p110α/p85 (P27986 whole entry partner): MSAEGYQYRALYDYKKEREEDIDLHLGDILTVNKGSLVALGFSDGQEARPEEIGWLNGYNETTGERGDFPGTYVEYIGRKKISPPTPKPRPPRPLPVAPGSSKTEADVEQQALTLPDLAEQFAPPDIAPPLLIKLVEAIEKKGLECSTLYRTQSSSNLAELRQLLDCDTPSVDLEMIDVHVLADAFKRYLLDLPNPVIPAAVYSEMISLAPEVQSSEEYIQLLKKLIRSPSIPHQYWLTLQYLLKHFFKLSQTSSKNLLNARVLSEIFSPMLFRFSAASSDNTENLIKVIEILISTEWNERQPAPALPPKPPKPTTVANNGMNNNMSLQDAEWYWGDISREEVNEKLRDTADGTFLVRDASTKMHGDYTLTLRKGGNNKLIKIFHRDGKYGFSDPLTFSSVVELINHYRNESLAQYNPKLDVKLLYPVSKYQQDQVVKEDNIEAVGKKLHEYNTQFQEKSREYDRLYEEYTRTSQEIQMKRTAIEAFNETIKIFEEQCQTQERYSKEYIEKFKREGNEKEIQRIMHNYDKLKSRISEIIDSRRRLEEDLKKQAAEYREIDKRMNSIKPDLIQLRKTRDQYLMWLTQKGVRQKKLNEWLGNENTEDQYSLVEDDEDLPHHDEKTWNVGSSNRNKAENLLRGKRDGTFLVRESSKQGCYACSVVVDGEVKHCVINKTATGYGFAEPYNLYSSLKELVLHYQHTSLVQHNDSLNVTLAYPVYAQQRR
As a reminder, the IC50 is the concentration at which inhibition is half-maximal. On to `COc1cccc2c1nc(C(F)F)n2-c1nc(N2CCOCC2)nc(N2CCN(C(=O)C(Cl)(Cl)Cl)CC2)n1` [Example 8, 2-(difluoromethyl)-1-{4-(4-morpholinyl)-6-[4-(trichloroacetyl)-1-piperazinyl]-1,3,5-triazin-2-yl}-1H-benzimidazol-4-yl methyl ether], for which the IC50 is under 100 nM.
On the same count and under the same terms, as for `COc1cccc2c1nc(C(F)F)n2-c1nc(N2CCOCC2)nc(N2CCN(C(=O)COS(C)(=O)=O)CC2)n1` [Example 9, 2-{4-[4-[2-(difluoromethyl)-4-methoxy-1H-benzimidazol-1-yl]-6-(4-morpholinyl)-1,3,5-triazin-2-yl]-1-piperazinyl}-2-oxoethyl methanesulfonate], the figure is under 100 nM.
With `COc1cccc2c1nc(C(F)F)n2-c1nc(N2CCOCC2)nc(N2CCN(C(=O)C(C)Cl)CC2)n1` (stereo not shown) [Example 10, 1-[4-[4-(2-chloropropanoyl)-1-piperazinyl]-6-(4-morpholinyl)-1,3,5-triazin-2-yl]-2-(difluoromethyl)-4-methoxy-1H-benzimidazole], the IC50 is under 100 nM.
For `COc1cccc2c1nc(C(F)F)n2-c1nc(N2CCOCC2)nc(N2CCN(S(=O)(=O)CCl)CC2)n1` [Example 11, 1-[4-{4-[(chloromethyl)sulfonyl]-1-piperazinyl}-6-(4-morpholinyl)-1,3,5-triazin-2-yl]-2-(difluoromethyl)-4-methoxy-1H-benzimidazole], the IC50 was under 100 nM.
As to `COc1cccc2c1nc(C(F)F)n2-c1nc(N2CCOCC2)nc(N2CCN(S(=O)(=O)CBr)CC2)n1` [Example 12, 1-[4-{4-[(bromomethyl)sulfonyl]-1-piperazinyl}-6-(4-morpholinyl)-1,3,5-triazin-2-yl]-2-(difluoromethyl)-4-methoxy-1H-benzimidazole], the IC50 was under 100 nM.
Consider `CN(C)CCCOc1cccc2c1nc(C(F)F)n2-c1nc(N2CCOCC2)nc(N2CCN(S(=O)(=O)CCl)CC2)n1` [Example 13], for which the IC50 is over 1000 nM.
Regarding `COc1cccc2c1nc(C(F)F)n2-c1nc(N2CCOCC2)cc(N2CCN(S(=O)(=O)CCl)CC2)n1` [Example 14, 1-[4-{4-[(chloromethyl)sulfonyl]-1-piperazinyl}-6-(4-morpholinyl)-2-pyrimidinyl]-2-(difluoromethyl)-4-methoxy-1H-benzimidazole], the IC50 was under 100 nM.
As for `CN(C)CCCOc1cccc2c1nc(C(F)F)n2-c1nc(N2CCOCC2)nc(N(C)C2CCN(C(=O)CCl)CC2)n1` [Example 20, N-[1-(chloroacetyl)-4-piperidinyl]-4-{2-(difluoromethyl)-4-[3-(dimethylamino)propoxy]-1H-benzimidazol-1-yl}-N-methyl-6-(4-morpholinyl)-1,3,5-triazin-2-amine], the IC50 is 100 to 1000 nM.
In the case of `CN(C)CCCOc1cccc2c1nc(C(F)F)n2-c1nc(N2CCOCC2)nc(N2CCC(N(C)C(=O)CCl)CC2)n1` [Example 24, 2-chloro-N-{1-[4-{2-(difluoromethyl)-4-[3-(dimethylamino)propoxy]-1H-benzimidazol-1-yl}-6-(4-morpholinyl)-1,3,5-triazin-2-yl]-4-piperidinyl}-N-methylacetamide], the IC50 fell in the range of 100 to 1000 nM.
`COc1cccc2c1nc(C(F)F)n2-c1nc(N2CCOCC2)nc(N2CC[C@H](NC(=O)CCl)C2)n1` [Example 26, 2-chloro-N-{(3S)-1-[4-[2-(difluoromethyl)-4-methoxy-1H-benzimidazol-1-yl]-6-(4-morpholinyl)-1,3,5-triazin-2-yl]pyrrolidinyl}acetamide]: the IC50 was under 100 nM.
In the case of `COc1cccc2c1nc(C(F)F)n2-c1nc(N2CCOCC2)nc(N2CCC[C@H](N(C)C(=O)CCl)C2)n1` [Example 36, 2-chloro-N-{(3S)-1-[4-[2-(difluoromethyl)-4-methoxy-1H-benzimidazol-1-yl]-6-(4-morpholinyl)-1,3,5-triazin-2-yl]piperidinyl}-N-methylacetamide], the IC50 is under 100 nM.
Still for that read-out and setting: to `COc1cccc2c1nc(C(F)F)n2-c1nc(N[C@H]2CCCN(C(=O)CCl)C2)nc(N2CCOCC2)n1` [Example 38] belongs under 100 nM.
Take `CN(C)CCCOc1cccc2c1nc(C(F)F)n2-c1nc(OC2CCN(C(=O)CCl)CC2)nc(N2CCOCC2)n1` [Example 46, 3-{[1-[4-{[1-(chloroacetyl)-4-piperidinyl]oxy}-6-(4-morpholinyl)-1,3,5-triazin-2-yl]-2-(difluoromethyl)-1H-benzimidazol-4-yl]oxy}-N,N-dimethyl-1-propanamine]: the IC50 was in the range of 100 to 1000 nM.

Test system in another series: not given
Assay: not given
Conditions: not given
By melting point is commonly meant the temperature of the solid-liquid transition. Molecule `COc1cccc2c1nc(C(F)F)n2-c1nc(-c2ccncc2)nc(N2CCN(C(=O)CCl)CC2)n1` (as salt: hydrochloride) [Example 6, 1-[4-[4-(chloroacetyl)-1-piperazinyl]-6-(4-pyridinyl)-1,3,5-triazin-2-yl]-2-(difluoromethyl)-4-methoxy-1H-benzimidazole] showed a melting point of over 300 °C.
In turn, `CN(C)CCCOc1cccc2c1nc(C(F)F)n2-c1nc(N2CCOCC2)nc(N2CCN(S(=O)(=O)CCl)CC2)n1` (as salt: hydrochloride) [Example 13] had a melting point of 243 to 247 °C.
For the molecule `CN(C)CCCOc1cccc2c1nc(C(F)F)n2-c1nc(N2CCOCC2)nc(N(C)C2CCN(C(=O)CCl)CC2)n1` (as salt: hydrochloride) [Example 20, N-[1-(chloroacetyl)-4-piperidinyl]-4-{2-(difluoromethyl)-4-[3-(dimethylamino)propoxy]-1H-benzimidazol-1-yl}-N-methyl-6-(4-morpholinyl)-1,3,5-triazin-2-amine], the melting point was 128 °C (dec.).
The same measure, in the same setting: to `O=C(CCl)N1CCN(c2nc(-c3cccc(O)c3)nc(N3CCOCC3)n2)CC1` [Example 1, 3-[4-[4-(chloroacetyl)-1-piperazinyl]-6-(4-morpholinyl)-1,3,5-triazin-2-yl]phenol] belongs 242 to 245 °C; to `CCOc1cccc2c1nc(C(F)F)n2-c1nc(N2CCOCC2)nc(N2CCN(C(=O)CCl)CC2)n1` [Example 2, 1-[4-[4-(chloroacetyl)-1-piperazinyl]-6-(4-morpholinyl)-1,3,5-triazin-2-yl]-2-(difluoromethyl)-4-ethoxy-1H-benzimidazole], 217 to 219 °C; to `O=C(CCl)N1CCN(c2nc(N3CCOCC3)nc(-n3c(C(F)F)nc4ccccc43)n2)CC1` [Example 3, 1-[4-[4-(Chloroacetyl)-1-piperazinyl]-6-(4-morpholinyl)-1,3,5-triazin-2-yl]-2-(difluoromethyl)-1H-benzimidazole], 189 to 191 °C.
Regarding `O=C(CCl)N1CCN(c2nc(N3CCOCC3)nc(-n3c(C(F)F)nc4c(O)cccc43)n2)CC1` [Example 5, 1-[4-[4-(Chloroacetyl)-1-piperazinyl]-6-(4-morpholinyl)-1,3,5-triazin-2-yl]-2-(difluoromethyl)-1H-benzimidazol-4-ol], the melting point lay within 267 to 270 °C.
As for `COc1cccc2c1nc(C(F)F)n2-c1nc(N2CCOCC2)nc(N2CCN(C(=O)C(Cl)Cl)CC2)n1` [Example 7, 1-[4-[4-(dichloroacetyl)-1-piperazinyl]-6-(4-morpholinyl)-1,3,5-triazin-2-yl]-2-(difluoromethyl)-4-methoxy-1H-benzimidazole], the melting point was in the range of 275 to 278 °C.
`COc1cccc2c1nc(C(F)F)n2-c1nc(N2CCOCC2)nc(N2CCN(C(=O)COS(C)(=O)=O)CC2)n1` [Example 9, 2-{4-[4-[2-(difluoromethyl)-4-methoxy-1H-benzimidazol-1-yl]-6-(4-morpholinyl)-1,3,5-triazin-2-yl]-1-piperazinyl}-2-oxoethyl methanesulfonate] yielded a melting point of 176 to 180 °C.
For `COc1cccc2c1nc(C(F)F)n2-c1nc(N2CCOCC2)nc(N2CCN(S(=O)(=O)CCl)CC2)n1` [Example 11, 1-[4-{4-[(chloromethyl)sulfonyl]-1-piperazinyl}-6-(4-morpholinyl)-1,3,5-triazin-2-yl]-2-(difluoromethyl)-4-methoxy-1H-benzimidazole], the melting point was in the range of 261 to 263 °C.
With `COc1cccc2c1nc(C(F)F)n2-c1nc(N2CCOCC2)nc(N2CCN(S(=O)(=O)CBr)CC2)n1` [Example 12, 1-[4-{4-[(bromomethyl)sulfonyl]-1-piperazinyl}-6-(4-morpholinyl)-1,3,5-triazin-2-yl]-2-(difluoromethyl)-4-methoxy-1H-benzimidazole], the melting point was in the range of 259 to 262 °C.
Still for that read-out and setting: as for `COc1cccc2c1nc(C(F)F)n2-c1nc(N2CCOCC2)cc(N2CCN(S(=O)(=O)CCl)CC2)n1` [Example 14, 1-[4-{4-[(chloromethyl)sulfonyl]-1-piperazinyl}-6-(4-morpholinyl)-2-pyrimidinyl]-2-(difluoromethyl)-4-methoxy-1H-benzimidazole], the figure is 229 to 232 °C.
